What all share (assay): relative viability (nuclei count vs DMSO), 5 days (fraction); higher = more cells survive
Compound in experiment [1]: CC1=CC(=NN1)NC2=CC(=NC(=N2)/C=C/C3=CC=CC=C3)N4CCN(CC4)C + O=C(c1cc(Cc2n[nH]c(=O)c3ccccc23)ccc1F)N1CCN(C(=O)C2CC2)CC1 [Olaparib] (partner 8 µM)
In short, it runs like this: (§1)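 The day after seeding in 1536-well plates, lung cancer cell lines were treated by pin tool with a single drug, or with a fixed anchor-drug dose together with five library-drug doses (not always all listed) in √10 steps. After 5 days, a combined fix-and-stain solution (final 0.05% Triton X-100, 1% formaldehyde, 1 ug/ml Hoechst) was added. Nuclei counted on 4× images gave relative viability as treated counts over vehicle counts, reported as the median of duplicate plates.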

Compound in experiment [2]: CC1=CC(=NN1)NC2=CC(=NC(=N2)/C=C/C3=CC=CC=C3)N4CCN(CC4)C + COc1cc2c(Oc3ccc(NC(=O)C4(C(=O)Nc5ccc(F)cc5)CC4)cc3F)ccnc2cc1OCCCN1CCOCC1 [Foretinib] (partner 0.25 µM)
In short, it runs like this: as §1

Compound in experiment [3]: CC1=CC(=NN1)NC2=CC(=NC(=N2)/C=C/C3=CC=CC=C3)N4CCN(CC4)C + CS(=O)(=O)N1CCN(Cc2cc3nc(-c4cccc5[nH]ncc45)nc(N4CCOCC4)c3s2)CC1 [Pictilisib] (partner 1 µM)
Summed up:
as §1

Compound in the experiment “Obatoclax + Olaparib”: COC1=CC(c2cc3ccccc3[nH]2)=N/C1=C\c1[nH]c(C)cc1C [Obatoclax] + O=C(c1cc(Cc2n[nH]c(=O)c3ccccc23)ccc1F)N1CCN(C(=O)C2CC2)CC1 [Olaparib] (partner 8 µM)
Summed up: as §1

This is an account of results in the supplement of paper PMC10307832.

NCI-H650: the relative viability in experiment [1] (first compound 0.08 µM) turned out to be 0.376; in experiment [1] (first compound 0.253 µM), 0.431; in experiment [1] (first compound 0.8 µM) it was 0.416; in experiment [1] (first compound 2.53 µM) it was 0.344; in experiment [1] (first compound 8 µM), 0.136; in experiment [2] (first compound 0.253 µM), 1.14. Further, the relative viability is 1.01 in experiment [2] (first compound 0.8 µM); 0.923 in experiment [2] (first compound 2.53 µM); 0.255 in experiment [2] (first compound 8 µM); 0.763 in experiment [3] (first compound 0.08 µM); 0.92 in experiment [3] (first compound 0.253 µM); 0.93 in experiment [3] (first compound 0.8 µM). Besides, the relative viability is 0.719 in experiment [3] (first compound 2.53 µM); 0.183 in experiment [3] (first compound 8 µM); 0.385 with Obatoclax + Olaparib (first compound 0.01 µM); 0.388 in the experiment with Obatoclax + Olaparib (first compound 0.03162 µM); 0.264 with Obatoclax + Olaparib (first compound 0.3162 µM); 0.18 in the experiment with Obatoclax + Olaparib (first compound 1 µM).
